According to paper PMC10484922, “Discovery of a selective and biologically active low-molecular weight antagonist of human interleukin-1β” (Nature Communications, 2023):
Where “and” joins values, the source holds several entries; their conditions need not be identical. Equal values may be shown once. Entries after “also recorded” stand apart in the source; their conditions may differ.

Experiments:
[1] = test system: normal human dermal fibroblasts stimulated with hIL-1α; test: Human fibroblast IL-6 release assay, hIL-1α stimulated; type: cell-based; design: IL-1alpha (mean, SD): mean readout (IL-6 release): unit not given here; settings: Figure 3c; for Mean OD (OD 450nm): compound 1 nM; for IL-1alpha (mean, SD): mean readout (IL-6 release): compound @ 1nM
Protocol: (§1) We used HEK-Blue™ IL-1β cells that respond specifically to IL-1 (# hkb-il1b, InvivoGen). These cells can detect IL-1α and IL-1β, as these cytokines bind to the same receptor, IL-1R1. They express a Seap reporter gene under the control of the IFN-β minimal promoter fused to five NF-kappaB and five AP-1 binding sites. Thirty microliters (300,000 cells/ml) per well of a 384-well plate were plated overnight. Cells were then stimulated with graded concentrations of cytokines (hIL-1α or hIL-1β) in the absence or presence of canakinumab (Ilaris®, ILARI LYVI 150MG 22GLW.012, batch U003 0409)[22], anakinra (Kineret®, 100 mg/0.67 ml injectable solution, Sobi)[23], or compound (S)-2 (compounds were pre-mixed for 1 h with the cytokine prior to addition to cells) and further incubated overnight before assessment of Seap activity.
(§2) Normal human dermal fibroblasts (NHDF) from Clonetics^TM (LONZA, Cat # CC-2509 (NHDF-Neo), Lot # 0000234242, used at passage ≤14) were seeded at a density of 5000 cells/well in 100 μL of culture medium using 96-well plates (flat bottom, TCT). Treatment with cytokines/compounds was performed as described above. Cells were incubated for another 6 h and were subsequently spun down (320g/3 min). IL-6 was measured in the supernatant by ELISA (BioLegend, # 430503) or HTRF (Cisbio, #62HIL06PEH).

[2] = test system: normal human dermal fibroblasts stimulated with hIL-1β; test: Human fibroblast IL-6 release assay, hIL-1β stimulated; type: cell-based; design: IL-6, average / inhibition, replicates of EXP1, EXP2, EXP3 / inhibition, Mean / IL-1beta (mean, SD): mean readout (IL-6 release): unit not given here; settings: for % Inhibition (EXP1-EXP3, single experiments) / % Inhibition, Mean: Figure 3b; for % Inhibition, Mean: mean of 3 experiments; for Mean OD (OD 450nm) / IL-1beta (mean, SD): mean readout (IL-6 release): Figure 3c; for Mean OD (OD 450nm): compound 1 nM; for IL-1beta (mean, SD): mean readout (IL-6 release): compound @ 1nM
Protocol: as §1, §2

[3] = test system: HEK-Blue IL-1β cells stimulated with hIL-1α; test: HEK293 reporter gene assay, hIL-1α as trigger; type: cell-based, human; settings: inhibitor 3nM
Protocol: as §1

[4] = test system: HEK-Blue IL-1β cells stimulated with hIL-1β; test: HEK293 reporter gene assay, hIL-1β as trigger; type: cell-based, human; settings: inhibitor 3nM
Protocol: as §1

[5] = Canakinumab concentration 0.00457247 (unit not given)
[6] = Canakinumab concentration 0.0137174 (unit not given)
[7] = Canakinumab concentration 0.0411523 (unit not given)
[8] = Canakinumab concentration 0.123457 (unit not given)
[9] = Canakinumab concentration 0.37 (unit not given)
[10] = Canakinumab concentration 1.11 (unit not given)
[11] = Canakinumab concentration 3.33 (unit not given)

Substance: canakinumab: anti-hIL-1β antibody [reference compound]
- Mean OD (OD 450nm) ([1]; hu IL-1A 0 pg/mL): 0.041
- Mean OD (OD 450nm) ([1]; hu IL-1A 40 pg/mL): 0.388
- Mean OD (OD 450nm) ([1]; hu IL-1A 80 pg/mL): 0.589
- Mean OD (OD 450nm) ([1]; hu IL-1A 120 pg/mL): 0.693
- Mean OD (OD 450nm) ([1]; hu IL-1A 160 pg/mL): 0.774
- Mean OD (OD 450nm) ([1]; hu IL-1A 200 pg/mL): 0.785
- IL-1alpha (mean, SD): mean readout (IL-6 release) ([1]; hu IL-1a 0 pg/mL): 0
- IL-1alpha (mean, SD): mean readout (IL-6 release) ([1]; hu IL-1a 40 pg/mL): 2114.2
- IL-1alpha (mean, SD): mean readout (IL-6 release) ([1]; hu IL-1a 80 pg/mL): 3604.7
- IL-1alpha (mean, SD): mean readout (IL-6 release) ([1]; hu IL-1a 120 pg/mL): 4369.8
- IL-1alpha (mean, SD): mean readout (IL-6 release) ([1]; hu IL-1a 160 pg/mL): 4969.2
- IL-1alpha (mean, SD): mean readout (IL-6 release) ([1]; hu IL-1a 200 pg/mL): 5051.1
- block of hIL-1β driven IL-6 release [2]: fully blocked; also recorded: selectively inhibited IL-1β driven activity
- % Inhibition (EXP1-EXP3, single experiments) [2, 5]: 15.5% and 11.1% and 14.6%
- % Inhibition, Mean [2, 5]: 13.7%
- % Inhibition (EXP1-EXP3, single experiments) [2, 6]: 23.7% and 27.7% and 26.5%
- % Inhibition, Mean [2, 6]: 26%
- % Inhibition (EXP1-EXP3, single experiments) [2, 7]: 29% and 29.6% and 31.5%
- % Inhibition, Mean [2, 7]: 30%
- % Inhibition (EXP1-EXP3, single experiments) [2, 8]: 46.1% and 41.8% and 58.9%
- % Inhibition, Mean [2, 8]: 48.9%
- % Inhibition (EXP1-EXP3, single experiments) [2, 9]: 71.6% and 66.1% and 70.6%
- % Inhibition, Mean [2, 9]: 69.4%
- % Inhibition (EXP1-EXP3, single experiments) [2, 10]: 91.2% and 93.8% and 92.3%
- % Inhibition, Mean [2, 10]: 92.4%
- % Inhibition (EXP1-EXP3, single experiments) [2, 11]: 99.3% and 99.2% and 98.7%
- % Inhibition, Mean [2, 11]: 99%
- Mean OD (OD 450nm) ([2]; hu IL-1b 0 pg/mL): 0.033
- IL-1beta (mean, SD): mean readout (IL-6 release) ([2]; hu IL-1b 0 pg/mL): 0
- Mean OD (OD 450nm) ([2]; hu IL-1b 40 pg/mL): 0.046
- IL-1beta (mean, SD): mean readout (IL-6 release) ([2]; hu IL-1b 40 pg/mL): 0
- Mean OD (OD 450nm) ([2]; hu IL-1b 80 pg/mL): 0.099
- IL-1beta (mean, SD): mean readout (IL-6 release) ([2]; hu IL-1b 80 pg/mL): 0
- Mean OD (OD 450nm) ([2]; hu IL-1b 120 pg/mL): 0.15
- IL-1beta (mean, SD): mean readout (IL-6 release) ([2]; hu IL-1b 120 pg/mL): 353.7
- Mean OD (OD 450nm) ([2]; hu IL-1b 160 pg/mL): 0.229
- IL-1beta (mean, SD): mean readout (IL-6 release) ([2]; hu IL-1b 160 pg/mL): 936.8
- Mean OD (OD 450nm) ([2]; hu IL-1b 200 pg/mL): 0.252
- IL-1beta (mean, SD): mean readout (IL-6 release) ([2]; hu IL-1b 200 pg/mL): 1110.8
- reporter gene assay signal, mean (Figure 3d) ([3]; IL-1alpha 3.04596 pg/ml): 0.08
- reporter gene assay signal, mean (Figure 3d) ([3]; IL-1alpha 6.09192 pg/ml): 0.12
- reporter gene assay signal, mean (Figure 3d) ([3]; IL-1alpha 12.1838 pg/ml): 0.19
- reporter gene assay signal, mean (Figure 3d) ([3]; IL-1alpha 24.3677 pg/ml): 0.36
- reporter gene assay signal, mean (Figure 3d) ([3]; IL-1alpha 48.7353 pg/ml): 0.66
- reporter gene assay signal, mean (Figure 3d) ([3]; IL-1alpha 97.4707 pg/ml): 1.07
- reporter gene assay signal, mean (Figure 3d) ([3]; IL-1alpha 194.941 pg/ml): 1.44
- reporter gene assay signal, mean (Figure 3d) ([3]; IL-1alpha 389.883 pg/ml): 1.69
- reporter gene assay signal, mean (Figure 3d) ([3]; IL-1alpha 779.766 pg/ml): 1.8
- reporter gene assay signal, mean (Figure 3d) ([3]; IL-1alpha 1559.53 pg/ml): 1.86
- reporter gene assay signal, mean (Figure 3d) ([3]; IL-1alpha 3119.06 pg/ml): 1.88
- reporter gene assay signal, mean (Figure 3d) ([3]; IL-1alpha 6238.12 pg/ml): 1.91
- reporter gene assay signal, mean (Figure 3d) ([3]; IL-1alpha 12476.2 pg/ml): 1.92
- reporter gene assay signal, mean (Figure 3d) ([3]; IL-1alpha 24952.5 pg/ml): 2
- reporter gene assay signal, mean (Figure 3d) ([3]; IL-1alpha 49905 pg/ml): 1.98
- reporter gene assay signal, mean (Figure 3d) ([4]; IL-1beta 3.04596 pg/ml): 0.06
- reporter gene assay signal, mean (Figure 3d) ([4]; IL-1beta 6.09192 pg/ml): 0.06
- reporter gene assay signal, mean (Figure 3d) ([4]; IL-1beta 12.1838 pg/ml): 0.06
- reporter gene assay signal, mean (Figure 3d) ([4]; IL-1beta 24.3677 pg/ml): 0.06
- reporter gene assay signal, mean (Figure 3d) ([4]; IL-1beta 48.7353 pg/ml): 0.06
- reporter gene assay signal, mean (Figure 3d) ([4]; IL-1beta 97.4707 pg/ml): 0.07
- reporter gene assay signal, mean (Figure 3d) ([4]; IL-1beta 194.941 pg/ml): 0.08
- reporter gene assay signal, mean (Figure 3d) ([4]; IL-1beta 389.883 pg/ml): 0.1
- reporter gene assay signal, mean (Figure 3d) ([4]; IL-1beta 779.766 pg/ml): 0.2
- reporter gene assay signal, mean (Figure 3d) ([4]; IL-1beta 1559.53 pg/ml): 0.42
- reporter gene assay signal, mean (Figure 3d) ([4]; IL-1beta 3119.06 pg/ml): 0.74
- reporter gene assay signal, mean (Figure 3d) ([4]; IL-1beta 6238.12 pg/ml): 1.18
- reporter gene assay signal, mean (Figure 3d) ([4]; IL-1beta 12476.2 pg/ml): 1.55
- reporter gene assay signal, mean (Figure 3d) ([4]; IL-1beta 24952.5 pg/ml): 1.78
- reporter gene assay signal, mean (Figure 3d) ([4]; IL-1beta 49905 pg/ml): 1.85
